Results taken from US20200079757A1, “COMPOUNDS FOR THE TREATMENT OF RESPIRATORY DISEASES” (THE UNIVERSITY OF MELBOURNE, priority 2017, published 2020).

Experiments:
[1] = system: PAI-1 gene expression in BEAS-2B cells; assay: TNF-α and TGF-β induced PAI-1 gene expression in BEAS-2B cells (RT-qPCR); format: cell-based; settings: agent 10 μM
Method: The primary assay for the activity of the novel CK1δ/ε inhibitors is the modulation of gene expression in the airway epithelial cell line, the BEAS-2B cells. The assay is conducted under several conditions. Generally, TGF-β or TNF-α is used to elicit fibrogenic or inflammatory genes, respectively. The agents are added at a concentration of 10 μM, or at the indicated concentrations for a period of 30 min prior to the addition of TGF-β/TNF-α which are incubated for a further 20 hours before the addition, in some experiments of the glucocorticoid, dexamethasone (Dex, 30 nM) for the final 4 hours of the experiment, prior to harvest of cellular RNA to measure by RT-qPCR the levels of mRNA of marker genes for inflammation and fibrogenesis. The inhaled corticosteroid (ICS), budesonide is also used in some experiments. Furthermore, the supernatants are harvested at the end of the incubation periods in selected experiments to measure the levels of CSF-2 or IL-8 by ELISA as described in (Tran et al. (2005) British Journal of Pharmacology, 145, 123-131). Prior to experimentation, BEAS-2B and A549 cells were incubated in serum-free DMEM containing 0.25% bovine serum albumin (BSA) and insulin-transferrin-selenium—containing supplement (Monomed A; CSL, Parkville, Melbourne, Australia). Where indicated, cells were treated with one of the series of synthesised compounds (0.3-10 μM) prior to exposure to 100 pM TGF-β1 (R&D Systems, Minneapolis, Minn.) or 300 pM bFGF (Promega, Madison, Wis.). Total RNA was extracted from cultured cells using illustra RNAspin Mini RNA Isolation Kit (GE Healthcare). RNA extracts were reverse-transcribed into cDNA using High-Capacity RNA-to-cDNA Kit (Applied Biosystems). Real-time PCR was then performed using a QuantStudio 6 Flex Real-Time PCR System using iTaq Universal SYBR green supermix and the following thermal protocol: 50° C. (2 min), 95° C. (10 min), then 40 cycles of 95° C. (15 sec), 60° C. (1 min). The threshold cycle (CT) values determined for target genes were normalized against those obtained for 18S ribosomal RNA (18S rRNA), which was included as internal control. The generation of specific PCR products was confirmed by dissociation curve analysis. In the same experiment as described in FIG. 1, the expression of the fibrogen plasminogen activator inhibitor-1 was measured (see FIG. 2). The levels of this gene are increased by both TGF-β and by Dex and they synergise when added together. The CK1 inhibitors concentration-dependently reduce the effects of each of the stimuli and further reduce baseline expression. Their potency in this effect is similar, regardless of the condition being considered. In a separate experiment BEAS-2B cells were exposed to TNF-α with(out) 30 min pretreatment with either SS9-010 or PF670462 (1-10 μM). RNA was then extracted and analyzed by RT-qPCR. Each agent inhibited TNFa stimulated PAI-1 expression with similar potency and maxima (see FIG. 3). Data are presented as mean±SD for n=1 (three technical replicates).

[2] = system: Col 1A gene expression in BEAS-2B cells; assay: TNFα and TGFβ induced Col 1A gene expression in BEAS-2B cells (RT-qPCR); format: cell-based; settings: agent 10 μM
Method: The primary assay for the activity of the novel CK1δ/ε inhibitors is the modulation of gene expression in the airway epithelial cell line, the BEAS-2B cells. The assay is conducted under several conditions. Generally, TGF-β or TNF-α is used to elicit fibrogenic or inflammatory genes, respectively. The agents are added at a concentration of 10 μM, or at the indicated concentrations for a period of 30 min prior to the addition of TGF-β/TNF-α which are incubated for a further 20 hours before the addition, in some experiments of the glucocorticoid, dexamethasone (Dex, 30 nM) for the final 4 hours of the experiment, prior to harvest of cellular RNA to measure by RT-qPCR the levels of mRNA of marker genes for inflammation and fibrogenesis. The inhaled corticosteroid (ICS), budesonide is also used in some experiments. Furthermore, the supernatants are harvested at the end of the incubation periods in selected experiments to measure the levels of CSF-2 or IL-8 by ELISA as described in (Tran et al. (2005) British Journal of Pharmacology, 145, 123-131).
Prior to experimentation, BEAS-2B and A549 cells were incubated in serum-free DMEM containing 0.25% bovine serum albumin (BSA) and insulin-transferrin-selenium—containing supplement (Monomed A; CSL, Parkville, Melbourne, Australia). Where indicated, cells were treated with one of the series of synthesised compounds (0.3-10 μM) prior to exposure to 100 pM TGF-β1 (R&D Systems, Minneapolis, Minn.) or 300 pM bFGF (Promega, Madison, Wis.).
Total RNA was extracted from cultured cells using illustra RNAspin Mini RNA Isolation Kit (GE Healthcare). RNA extracts were reverse-transcribed into cDNA using High-Capacity RNA-to-cDNA Kit (Applied Biosystems). Real-time PCR was then performed using a QuantStudio 6 Flex Real-Time PCR System using iTaq Universal SYBR green supermix and the following thermal protocol: 50° C. (2 min), 95° C. (10 min), then 40 cycles of 95° C. (15 sec), 60° C. (1 min). The threshold cycle (CT) values determined for target genes were normalized against those obtained for 18S ribosomal RNA (18S rRNA), which was included as internal control. The generation of specific PCR products was confirmed by dissociation curve analysis.

[3] = system: SCNN1A gene expression in BEAS-2B cells; assay: TGF-β-induced suppression of dexamethasone-induced SCNN1A gene expression in BEAS-2B cells; format: cell-based; settings: BEAS-2B, agent 10 μM
Method: The primary assay for the activity of the novel CK1δ/ε inhibitors is the modulation of gene expression in the airway epithelial cell line, the BEAS-2B cells. The assay is conducted under several conditions. Generally, TGF-β or TNF-α is used to elicit fibrogenic or inflammatory genes, respectively. The agents are added at a concentration of 10 μM, or at the indicated concentrations for a period of 30 min prior to the addition of TGF-β/TNF-α which are incubated for a further 20 hours before the addition, in some experiments of the glucocorticoid, dexamethasone (Dex, 30 nM) for the final 4 hours of the experiment, prior to harvest of cellular RNA to measure by RT-qPCR the levels of mRNA of marker genes for inflammation and fibrogenesis. The inhaled corticosteroid (ICS), budesonide is also used in some experiments. Furthermore, the supernatants are harvested at the end of the incubation periods in selected experiments to measure the levels of CSF-2 or IL-8 by ELISA as described in (Tran et al. (2005) British Journal of Pharmacology, 145, 123-131). Prior to experimentation, BEAS-2B and A549 cells were incubated in serum-free DMEM containing 0.25% bovine serum albumin (BSA) and insulin-transferrin-selenium—containing supplement (Monomed A; CSL, Parkville, Melbourne, Australia). Where indicated, cells were treated with one of the series of synthesised compounds (0.3-10 μM) prior to exposure to 100 pM TGF-β1 (R&D Systems, Minneapolis, Minn.) or 300 pM bFGF (Promega, Madison, Wis.). Total RNA was extracted from cultured cells using illustra RNAspin Mini RNA Isolation Kit (GE Healthcare). RNA extracts were reverse-transcribed into cDNA using High-Capacity RNA-to-cDNA Kit (Applied Biosystems). Real-time PCR was then performed using a QuantStudio 6 Flex Real-Time PCR System using iTaq Universal SYBR green supermix and the following thermal protocol: 50° C. (2 min), 95° C. (10 min), then 40 cycles of 95° C. (15 sec), 60° C. (1 min). The threshold cycle (CT) values determined for target genes were normalized against those obtained for 18S ribosomal RNA (18S rRNA), which was included as internal control. The generation of specific PCR products was confirmed by dissociation curve analysis. In FIG. 1, the effects of SS9-010 are contrasted with those of PF670462 in an assay in BEAS-B cells measuring the induction of the glucocorticoid-regulated gene, SCNN1A encoding the protein epithelial sodium channel alpha subunit. Serum-starved BEAS-2B cells were treated with CK1δ/ε inhibitor PF670462 (1, 3, 10 μM) or SS9-010 (1, 3, 10 μM) 30 min prior to TGF-β1 (40 pM) for 24 hours, then stimulated with dexamethasone (30 nM) for 4 hours. RNA was then extracted and analyzed by RT-qPCR. Data are presented as mean±SEM for n=4 independent experiments. The potency of PF670462 and SS9-010 were similar.

| melting point [°C] | SMILES | PAI-1 mRNA level, TGF-β [1] | PAI-1 mRNA level, TNF-α (n = 2) [1] [fold control] | PAI-1 mRNA level, vehicle (no stimulus) [1] [fold control] | Col1A mRNA level, TGF-β [2] | Col1A mRNA level, TNF-α (n = 2) [2] [fold control] | Col1A mRNA level, vehicle (no stimulus) [2] [fold control] | SCNN1A mRNA level, Dex [3] [fold control] | SCNN1A mRNA level, TGF-β [3] [fold control] | SCNN1A mRNA level, TGF-β/Dex [3] [fold control] | SCNN1A mRNA level, vehicle (no stimulus) [3] [fold control] |
| --- | --- | --- | --- | --- | --- | --- | --- | --- | --- | --- | --- |
| 204 to 212 | CCn1cnc(-c2ccc(F)cc2)c1-c1ccnc(N)n1 [ZH-6, 4-(1-(Ethyl)-4-(4-fluorophenyl)-1H-imidazol-5-yl)pyrimidin-2-amine] |  |  |  |  |  |  |  |  |  |  |
| 229 to 231 | Nc1nccc(-c2c(-c3ccc(F)cc3)ncn2C2CCC2)n1 [ZH-62, 4-(1-Cyclobutyl-4-(4-fluorophenyl)-1H-imidazol-5-yl)pyrimidin-2-amine] |  |  |  |  |  |  |  |  |  |  |
| 180 to 199 | Nc1nccc(-c2c(-c3ccc(F)cc3)ncn2CC2CCCCC2)n1 [ZH-138, 4-(1-(Cyclohexylmethyl)-4-(4-fluorophenyl)-1H-imidazol-5-yl)pyrimidin-2-amine] |  |  |  |  |  |  |  |  |  |  |

The next lines start with the molecule.

| SMILES | melting point [°C] | PAI-1 mRNA level, TGF-β [1] | PAI-1 mRNA level, TNF-α (n = 2) [1] [fold control] | PAI-1 mRNA level, vehicle (no stimulus) [1] [fold control] | Col1A mRNA level, TGF-β [2] | Col1A mRNA level, TNF-α (n = 2) [2] [fold control] | Col1A mRNA level, vehicle (no stimulus) [2] [fold control] | SCNN1A mRNA level, Dex [3] [fold control] | SCNN1A mRNA level, TGF-β [3] [fold control] | SCNN1A mRNA level, TGF-β/Dex [3] [fold control] | SCNN1A mRNA level, vehicle (no stimulus) [3] [fold control] |
| --- | --- | --- | --- | --- | --- | --- | --- | --- | --- | --- | --- |
| Nc1nccc(-c2c(-c3ccc(F)cc3)ncn2C2CCN(CCCCc3ccccc3)CC2)n1 [SS8-070, 4-(4-(4-Fluorophenyl)-1-[1-(4-phenylbutyl)piperidin-4-yl)-1H-imidazol-5-yl)pyrimidin-2-amine] |  | 6.57 (n = 2) fold control | 0.79 | 0.41 | 8.52 (n = 2) fold control | 0.88 | 1.17 | 3.79 | 0.42 | 2.15 | 1.63 |
| Nc1nccc(-c2c(-c3ccc(F)cc3)ncn2C23CC4CC(CC(C4)C2)C3)n1 [SS8-122, 4-(Adamantan-1-yl-4-(4-fluorophenyl)-1H-imidazol-5-yl)pyrimidin-2-amine] |  |  | 2.76 | 1.45 | 8.07 fold control | 1.56 | 1.39 | 4.26 | 0.15 | 1.67 | 0.86 |
| Cc1ccc(-c2ncn(C3CCCCC3)c2-c2ccnc(N)n2)cc1 [SS8-186] |  | 6.58 ± 1.04 fold control | 1.54 | 0.75 ± 0.07 | 3.14 ± 0.20 fold control | 0.56 | 0.50 ± 0.12 | 3.06 ± 0.34 | 0.42 ± 0.06 | 1.84 ± 0.25 | 1.36 ± 0.17 |
| CCCCN1CCC(n2cnc(-c3ccc(F)cc3)c2-c2ccnc(N)n2)CC1 [SS9-074, 4-(1-(1-Butylpiperidin-4-yl)-4-(4-fluorophenyl)-1H-imidazol-5-yl)pyrimidin-2-amine] |  | 12.3 (n = 2) fold control | 1.83 | 0.68 | 12.2 (n = 2) fold control | 2.14 | 1.61 | 3.46 | 0.36 | 3.27 | 1.22 |
| CC(C)(C)n1cnc(-c2ccc(F)cc2)c1-c1ccnc(N)n1 [ZH9-190, 4-(1-(Tert-butyl)-4-(4-fluorophenyl)-1H-imidazol-5-yl)pyrimidin-2-amine] | 189 to 197 |  |  |  |  |  |  |  |  |  |  |
| Fc1ccc(-c2ncn(C3CCCCC3)c2-c2ccnc(NC3CCC3)n2)cc1 [compound 81, N-Cyclobutyl-4-(1-cyclohexyl-4-(4-fluorophenyl)-1H-imidazol-5-yl)pyrimidin-2-amine] | 185 to 189 |  |  |  |  |  |  |  |  |  |  |
| C#CCNc1nccc(-c2c(-c3ccc(F)cc3)ncn2C2CCCCC2)n1 [compound 83, 4-(1-Cyclohexyl-4-(4-fluorophenyl)-1H-imidazol-5-yl)-N-(prop-2-yn-1-yl)pyrimidin-2-amine] | 147 to 155 |  |  |  |  |  |  |  |  |  |  |
| OCCNc1nccc(-c2c(-c3ccc(F)cc3)ncn2C2CCCCC2)n1 [compound 84, 2-((4-(1-Cyclohexyl-4-(4-fluorophenyl)-1H-imidazol-5-yl)pyrimidin-2-yl)amino)ethan-1-ol] | 180 to 184 |  |  |  |  |  |  |  |  |  |  |
